US6921531B2, “Administering bifunctional molecules containing a drug moiety and presenter protein ligand for therapy” (The Board of Trustees of the Leland Stanford Junior …, priority 1998, dated 2005)
“Also recorded” adds a separate entry of the source.

Legend:
Fyn SH2 domain = target: T1, Fyn SH2 domain (Homo sapiens, UniProt P06241); experiment: Competition binding assay of radioactive Fyn SH2 domain to pYEEI beads; conditions: for Effect of FKBP12 on affinity for the Fyn SH2 domain: 1.0 µM ligand plus FKBP12 (0.25-4.0 µM or 2.0 µM)
T1 construct: The Fyn, Lck and PLC SH2 domains were expressed in bacteria as GST fusion proteins; GST (cleaved yes); made in house; host or cells: bacteria
T1 sequence (P06241 149-246 limits assumed): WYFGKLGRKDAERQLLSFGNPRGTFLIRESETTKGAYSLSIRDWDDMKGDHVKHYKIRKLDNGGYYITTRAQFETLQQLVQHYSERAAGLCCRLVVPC
From the text: (§1) The pYEEI peptide was coupled to Affi-Gel 10 beads (Biorad) via its amino-group. The Fyn, Lck and PLC SH2 domains were expressed in bacteria as GST fusion proteins. The linker between the GST protein and the SH2 domain contained a thrombin cleavage site and a protein kinase A (PKA) phosphorylation site. The fusion protein on glutathione beads was radioactively labeled at the PKA phosphorylation site using PKA (Sigma). After extensive washing of the beads, the radioactive SH2 domain was released by cleavage with thrombin (Sigma). In a typical binding assay, 7.5 L of a 1:1 peptide bead slurry were incubated with the radioactive SH2 domain (200 nM) for 2 hours in 100 L of binding buffer (20 mM Tris pH7.2; 150 mM NaCl). In order to separate the radioactive protein bound to the beads, the binding reaction was transfered into a PCR tube (USA Scientific Plastic), whose bottom had been punctured with a 26gauge needle. The PCR tube was placed in a 0.5 mL Eppendorf tube which in turn was placed in a regular 1.5 mL Eppendorf tube. The tubes were spun for 1 second at maximal speed in an Eppendorf centrifuge resulting in the separation of the beads remaining in the PCR tube and the supernatant, which was collected in the 0.5 ml Eppendorf tube. The beads were resuspended in […] PBS and the radioactivity was counted in a liquid scintillation counter after addition of 3 ml scintillation fluid. The radioactivity remaining in the 100 L supernatant was counted in the same way. It was determined that under the conditions described 65% Fyn, 25% PLC and 15%Lck SH2 domain were bound to the beads. By increasing the amount of beads, up to 80% Fyn, 40% PLC and 25% Lck could be bound. These amounts reflect the active fraction of SH2 domains in the different protein preparations.
In order to determine the relative affinity of the SH2 domains for FKpYEEI or SLFpYEEI alone and FKpYEEI or SLFpYEEI bound to FKBP12 and FKBP52, the following competition assay was used. Radioactive SH2 domains were incubated with pYEEI peptide beads and FKpYEEI or SLFpYEEI in the presence or absence of the respective FKBP proteins. FKpYEEI and FKpYEEI/FKBP as well as SLFpYEEI and SLFpYEEI/FKBP compete for binding of the SH2 domains with the peptide beads. The higher the affinity of the FKpYEEI or SLFpYEEI ligand in the supernatant, the less SH2 domain is bound to the peptide beads (FIG. 3).
Using the competition binding assay described above, FKpYEEI was added to peptide beads and the Fyn SH2 domain in the presence of increasing concentrations of FKBP52 (FIG. 4). In this assay, in 100 L binding reactions, radioactively labeled Fyn SH2 domain (200 nM) was incubated with 7.5 L of a 1:1 pYEEI bead slurry. No FKpYEEI, 1.0 M FKpYEEI or 1.0 M FKpYEEI plus increasing concentrations of FKBP52 (0.25-4.0 M) were added. The binding reactions were rotated at room temperature for 2 hours. The supernatant was separated from the beads by spinning the binding reactions in punctured PCR tubes for 1 sec in an Eppendorf centrifuge at maximal speed. The beads were resuspended in 100 1 PBS and the radioactivity bound to the beads was counted in a liquid scintillation vial for 30 sec. The radioactivity bound to the beads in the presence of only the Fyn SH2 domain was plotted as 100% of maximal Fyn SH2 domain binding to pYEEI beads. The radioactivity bound in the presence of FKpYEEI and FKBP52 was calculated as the percentage of maximal Fyn SH2 domain binding. Every binding reaction was done in triplicate. The data points reflect the average of the three binding reactions. The error bars indicate the standard error.
In this assay, in 100 L binding reactions, radioactively labeled Fyn SH2 domain (200 nM) was incubated with 7.5 L of a 1:1 pYEEI bead slurry. […] The binding reactions were rotated at room temperature for 2 hours, centrifuged and analysed as described above. […]

PLC SH2 domain = experiment: Competition binding assay of radioactive PLC SH2 domain to pYEEI beads; conditions: 1.0-1.5 μM ligand plus FKBP12 (0.5-4.0 μM or 2.0 μM)
From the text: as §1, with “By increasing the amount of beads, up to 80% Fyn, 40% PLC and 25% Lck could be bound. These amounts reflect the active fraction of SH2 domains in the different protein preparations.” left out
The binary complex of FKpYEEI and FKBP 12 has the same affinity for the Fyn SH2 domain as free FKpYEEI (see FIG. 7). […] The binding reactions were rotated at room temperature for 2 hours, centrifuged and analysed as described above.
In this assay, in 100 L binding reactions, radioactively labeled PLC SH2 domain (400 nM) was incubated with 7.5 L of a 1:1 pYEEI bead slurry. […] The binding reactions were rotated at room temperature for 2 hours, centrifuged and analysed as described above. […]

Row | SMILES | Effect of FKBP12 on affinity for the Fyn SH2 domain (Fyn SH2 domain) | Factor of affinity reduction for the Fyn SH2 domain in complex with FKBP12 (Fyn SH2 domain; IC50 with FKBP12 vs without) | Effect of FKBP12 on affinity for the PLC SH2 domain (PLC SH2 domain) | Effect of FKBP52 on affinity for the Fyn SH2 domain (Fyn SH2 domain; 1.0 M ligand plus FKBP52 0.25-4.0 M) | Enhancement of affinity in the context of FKBP52 in respect to pYEEI (Fyn SH2 domain; IC50 of FKpYEEI plus FKBP52 vs IC50 of pYEEI) [fold] | Factor of affinity enhancement for the Fyn SH2 domain in complex with FKBP52 (Fyn SH2 domain; IC50 with FKBP52 vs without)
1 | CC[C@H](C)[C@H](NC(=O)[C@H](CCC(=O)O)NC(=O)[C@H](CCC(=O)O)NC(=O)[C@H](Cc1ccc(OP(=O)(O)O)cc1)NC(=O)COc1cccc([C@@H](CCc2ccc(OC)c(OC)c2)OC(=O)[C@@H]2CCCCN2C(=O)C(=O)C(C)(C)CC)c1)C(=O)O [SLFpYEEI] | reduced affinity for the Fyn SH2 domain; also recorded: reduced binding | six | reduced binding |  |  | 
2 | CC[C@H](C)[C@H](NC(=O)[C@H](CCC(=O)O)NC(=O)[C@H](CCC(=O)O)NC(=O)[C@H](Cc1ccc(OP(=O)(O)O)cc1)NC(=O)OCC[C@@H]1/C=C(\C)C[C@H](C)C[C@H](OC)[C@H]2O[C@@](O)(C(=O)C(=O)N3CCCC[C@H]3C(=O)O[C@H](/C(C)=C/[C@@H]3CC[C@@H](O)[C@H](OC)C3)[C@H](C)[C@@H](O)CC1=O)[C@H](C)C[C@@H]2OC)C(=O)O [FKpYEEI] | does not enhance the binding affinity for the Fyn SH2 domain; also recorded: does not affect the affinity |  | decreased affinity for the PLC SH2 domain; also recorded: reducing binding to the PLC SH2 domain | higher affinity for the Fyn SH2 domain | 4.4 | three
